In patent US20120015901A1, “METHODS AND PREPARATIONS FOR PROTECTING CRITICALLY ILL PATIENTS” (priority 2009, published 2012):
Where two headings read alike, the source gives them in different places.

Experiments:
[1] = test system: wild type yeast (BY4741) and null mutants; assay: Yeast chronological aging, survival plating (clonogenicity); format: cell-based
Procedure: Experiments were carried out in BY4741 (MATa his3Δ1 leu2Δ0 met15Δ0 ura3Δ0) and respective null mutants, obtained from Euroscarf. The double mutant Δiki3Δsas3 was generated according to Gueldener at al. (2002) Nucleic Acids Res. 30, e23 by using gene-specific URA3-knockout cassette, amplified by PCR with pUG72 as template (Lovaas & Carlin (1991) Free Radic Biol Med 11, 455-46.). […] All spe1 double mutant strains were obtained through mating and sporulation of BY4741 Δspe1 with the respective BY4742 ([…]) single mutant strains. Single and double mutant strains were verified for correct gene deletion by PCR and further checked for consistent auxotrophies. […] Strains were grown at 28° C. on SC medium containing 0.17% yeast nitrogen base (Difco), 0.5% (NH4)2SO4 and 30 mg/l of all amino acids (except 80 mg/l histidine and 200 mg/l leucine), 30 mg/l adenine, and 320 mg/l uracil with 2% glucose (SCD). […] To construct NHP6A-EGFP in pUG35-Ura (giving rise to a C-terminally tagged chimeric fusion protein under control of the met25-Promotor) the insert was amplified by PCR using genomic DNA from BY4741 as template and cloned into pUG35 using the EcoRI restriction site. The EGFP-ATG8 construct in pUG36-Ura (N-terminally tagged fusion protein) was similarly generated, using EcoRI and ClaI restriction sites.
In case of experiments with Δspe1 (FIG. 24 A-E), all strains were inoculated to 5·10^4 cells/ml. […] Therefore, for calculation of survival rates in experiments using Δiki3Δsas3, cell numbers of each sample were determined after two pulse of sonication on ice with Sonifier 250 from Benson (Duty Cycle: 35; Output Control: 2.5). Tests for apoptotic (TUNEL and Annexin V staining) and necrotic (PI staining) markers as well as markers for oxidative stress (DHE staining) were performed as described in Dod et al. (1982) Eur J Biochem 121, 401-405). For quantifications using flow cytometry (BD FACSAria), 30,000 cells were evaluated and analyzed with BD FACSDiva software. Spermidine (S4139, Sigma, Austria) and putrescine (P5780, Sigma, Austria; 1 mM final concentration) were added to stationary cultures at day 1 of the aging experiments (24 h after inoculation). 1 M aqueous stock solution of spermidine was stored in one use aliquots at −20° C. for no longer than 1 month. For adjustment of extracellular pH (pHex) to 6 (±0.5), the required amount of sodium hydroxide was added 30 h after inoculation. The pHex was maintained at approximately 6 (±0.5) throughout the aging.

acute liver injury = details: cited from earlier work

Compound: NCCCCN [putrescine, 1,4-diamino-butane]
- chronological life span of polyamine depleted cells [1]: restored
- effect on acute liver injury (acute liver injury; administered 2, 5 and 8 hours after injection of cadmium chloride): protective effect
- effect on acute liver injury (acute liver injury; administered 12, 15 and 18 h after cadmium injection): did not provide a protective effect
